# Data as given in PubChem BioAssay AID2060348 (Molecular Pharmacology Branch, DTP, NCI, 2025).
# Several values for one entry are separate records, joined by “and”; a condition that tells them apart may be missing. Identical values can stand only once.
# Test system: 885724-159-R-J1-PDC spheroids viability
# Test: Anticancer human tumor 885724-159-R-J1-PDC patient-derived pancreatic adenocarcinoma cell line growth inhibition [TAK]
# Conditions: spheroids with HUVEC and MSC; for viability, T/C: stronger effect = lower value
# How it was run: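 Tumor cells were grown as spheroids with HUVEC and hMSC (60:25:15) and treated with targeted agents combined with TAK-243 or ipatasertib. Drugs were tested in half-log steps down from near the clinical Cmax, or from 10 microM where Cmax was unknown.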
# [1] = curve of first compound, second compound 0.3 µM
# [2] = curve of first compound, second compound 0.949 µM
# [3] = curve of first compound, second compound 3 µM
# [4] = curve of first compound, second compound 9.49 µM
# [5] = curve of first compound, second compound 30 µM
# 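Note: spheroids exposed to drugs for seven days.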
# 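Throughout, for viability, T/C: 100% = DMSO vehicle control viability.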
structure (smiles),measurement,setting,value
CC(C)CC(NC(=O)C(Cc1ccccc1)NC(=O)c1cnccn1)B(O)O (stereo unspecified),"viability, T/C",compound 31.6 pM,114% and 102%
same,"viability, T/C",compound 0.0001 µM,105% and 100%
same,"viability, T/C",compound 0.000316 µM,104% and 93.8%
same,"viability, T/C",compound 0.001 µM,99.3% and 87.3%
same,"viability, T/C",compound 0.00316 µM,74.5% and 67.2%
same,"viability, T/C",compound 0.01 µM,1.18% and 1.87%
same,IC50,curve of compound,4.63 nM and 4.18 nM
CCCS(=O)(=O)Nc1ccc(F)c(C(=O)c2c[nH]c3ncc(-c4ccc(Cl)cc4)cc23)c1F + CC(C)NCC(C(=O)N1CCN(c2ncnc3c2C(C)CC3O)CC1)c1ccc(Cl)cc1,IC50,[1],> 100000 nM
same,IC50,[2],> 100000 nM
same,IC50,[3],25100 nM
same,IC50,[4],8750 nM
same,IC50,[5],< 316 nM
same,"viability, T/C","second compound 0.3 µM, first compound 0.316 µM",79.3%
same,"viability, T/C","second compound 0.3 µM, first compound 1 µM",93.8%
same,"viability, T/C","second compound 0.3 µM, first compound 3.16 µM",104%
same,"viability, T/C","second compound 0.3 µM, first compound 10 µM",89.7%
same,"viability, T/C","second compound 0.3 µM, first compound 31.6 µM",99.7%
same,"viability, T/C","second compound 0.3 µM, first compound 100 µM",105%
same,"viability, T/C","second compound 0.949 µM, first compound 0.316 µM",66.1%
same,"viability, T/C","second compound 0.949 µM, first compound 1 µM",78.4%
same,"viability, T/C","second compound 0.949 µM, first compound 3.16 µM",76.2%
same,"viability, T/C","second compound 0.949 µM, first compound 10 µM",74.2%
same,"viability, T/C","second compound 0.949 µM, first compound 31.6 µM",34.7%
same,"viability, T/C","second compound 0.949 µM, first compound 100 µM",76.6%
same,"viability, T/C","second compound 3 µM, first compound 0.316 µM",66.4%
same,"viability, T/C","second compound 3 µM, first compound 1 µM",71.8%
same,"viability, T/C","second compound 3 µM, first compound 3.16 µM",67.1%
same,"viability, T/C","second compound 3 µM, first compound 10 µM",63.9%
same,"viability, T/C","second compound 3 µM, first compound 31.6 µM",34.2%
same,"viability, T/C","second compound 3 µM, first compound 100 µM",58.8%
same,"viability, T/C","second compound 9.49 µM, first compound 0.316 µM",58.5%
same,"viability, T/C","second compound 9.49 µM, first compound 1 µM",58.4%
same,"viability, T/C","second compound 9.49 µM, first compound 3.16 µM",58.6%
same,"viability, T/C","second compound 9.49 µM, first compound 10 µM",48.9%
same,"viability, T/C","second compound 9.49 µM, first compound 31.6 µM",13.4%
same,"viability, T/C","second compound 9.49 µM, first compound 100 µM",47.2%
same,"viability, T/C","second compound 30 µM, first compound 0.316 µM",37.5%
same,"viability, T/C","second compound 30 µM, first compound 1 µM",40.9%
same,"viability, T/C","second compound 30 µM, first compound 3.16 µM",36.6%
same,"viability, T/C","second compound 30 µM, first compound 10 µM",12.8%
same,"viability, T/C","second compound 30 µM, first compound 31.6 µM",3.55%
same,"viability, T/C","second compound 30 µM, first compound 100 µM",23.1%
CC(C)CC(NC(=O)CNC(=O)c1cc(Cl)ccc1Cl)B1OC(=O)CC(CC(=O)O)(C(=O)O)O1 (stereo unspecified),"viability, T/C",compound 0.000316 µM,98.6% and 104%
same,"viability, T/C",compound 0.001 µM,101% and 96.8%
same,"viability, T/C",compound 0.00316 µM,99.5% and 103%
same,"viability, T/C",compound 0.01 µM,89.3% and 91.4%
same,"viability, T/C",compound 0.0316 µM,19.3% and 15.8%
same,"viability, T/C",compound 0.1 µM,1.47% and 1.1%
same,IC50,curve of compound,19.1 nM and 18.8 nM
CC(=O)Nc1cccc(-n2c(=O)n(C3CC3)c(=O)c3c(Nc4ccc(I)cc4F)n(C)c(=O)c(C)c32)c1 + CC(C)NCC(C(=O)N1CCN(c2ncnc3c2C(C)CC3O)CC1)c1ccc(Cl)cc1,IC50,[1],0.357 nM
same,IC50,[2],0.148 nM
same,IC50,[3],0.118 nM
same,IC50,[4],< 0.0949 nM
same,IC50,[5],< 0.0949 nM
same,"viability, T/C","second compound 0.3 µM, first compound 94.9 pM",62.1%
same,"viability, T/C","second compound 0.3 µM, first compound 0.0003 µM",52.4%
same,"viability, T/C","second compound 0.3 µM, first compound 0.000949 µM",39.4%
same,"viability, T/C","second compound 0.3 µM, first compound 0.003 µM",29.7%
same,"viability, T/C","second compound 0.3 µM, first compound 0.00949 µM",19.8%
same,"viability, T/C","second compound 0.3 µM, first compound 0.03 µM",12.7%
same,"viability, T/C","second compound 0.949 µM, first compound 94.9 pM",51.8%
same,"viability, T/C","second compound 0.949 µM, first compound 0.0003 µM",46.9%
same,"viability, T/C","second compound 0.949 µM, first compound 0.000949 µM",39.5%
same,"viability, T/C","second compound 0.949 µM, first compound 0.003 µM",26.4%
same,"viability, T/C","second compound 0.949 µM, first compound 0.00949 µM",16.5%
same,"viability, T/C","second compound 0.949 µM, first compound 0.03 µM",9.03%
same,"viability, T/C","second compound 3 µM, first compound 94.9 pM",50.9%
same,"viability, T/C","second compound 3 µM, first compound 0.0003 µM",47%
same,"viability, T/C","second compound 3 µM, first compound 0.000949 µM",37.3%
same,"viability, T/C","second compound 3 µM, first compound 0.003 µM",27.7%
same,"viability, T/C","second compound 3 µM, first compound 0.00949 µM",12.6%
same,"viability, T/C","second compound 3 µM, first compound 0.03 µM",7.15%
same,"viability, T/C","second compound 9.49 µM, first compound 94.9 pM",42.9%
same,"viability, T/C","second compound 9.49 µM, first compound 0.0003 µM",39.1%
same,"viability, T/C","second compound 9.49 µM, first compound 0.000949 µM",31.9%
same,"viability, T/C","second compound 9.49 µM, first compound 0.003 µM",20.5%
same,"viability, T/C","second compound 9.49 µM, first compound 0.00949 µM",9.73%
same,"viability, T/C","second compound 9.49 µM, first compound 0.03 µM",4.47%
same,"viability, T/C","second compound 30 µM, first compound 94.9 pM",29.2%
same,"viability, T/C","second compound 30 µM, first compound 0.0003 µM",23.4%
same,"viability, T/C","second compound 30 µM, first compound 0.000949 µM",15.1%
same,"viability, T/C","second compound 30 µM, first compound 0.003 µM",6.5%
same,"viability, T/C","second compound 30 µM, first compound 0.00949 µM",4.94%
same,"viability, T/C","second compound 30 µM, first compound 0.03 µM",2.14%
Cn1cnc2c(F)c(Nc3ccc(Br)cc3Cl)c(C(=O)NOCCO)cc21,"viability, T/C",compound 0.00949 µM,70.7% and 70.3%
same,"viability, T/C",compound 0.03 µM,53.1% and 54.5%
same,"viability, T/C",compound 0.0949 µM,38.9% and 38.3%
same,"viability, T/C",compound 0.3 µM,34.6% and 32.9%
same,"viability, T/C",compound 0.949 µM,28.6% and 27.2%
same,"viability, T/C",compound 3 µM,21.2% and 21.8%
same,IC50,curve of compound,40.9 nM
